Entries after “also recorded” stand apart in the source; their conditions may differ. Like-named read-outs stand apart in the source and are kept apart here.
Experiments:
CFTR [1] = target: T1, CFTR (Homo sapiens, UniProt P13569); details: cited from earlier work; for Ki: CFTR blocker, read-out: Potency: Ki
Target sequence in this assay (P13569 whole entry): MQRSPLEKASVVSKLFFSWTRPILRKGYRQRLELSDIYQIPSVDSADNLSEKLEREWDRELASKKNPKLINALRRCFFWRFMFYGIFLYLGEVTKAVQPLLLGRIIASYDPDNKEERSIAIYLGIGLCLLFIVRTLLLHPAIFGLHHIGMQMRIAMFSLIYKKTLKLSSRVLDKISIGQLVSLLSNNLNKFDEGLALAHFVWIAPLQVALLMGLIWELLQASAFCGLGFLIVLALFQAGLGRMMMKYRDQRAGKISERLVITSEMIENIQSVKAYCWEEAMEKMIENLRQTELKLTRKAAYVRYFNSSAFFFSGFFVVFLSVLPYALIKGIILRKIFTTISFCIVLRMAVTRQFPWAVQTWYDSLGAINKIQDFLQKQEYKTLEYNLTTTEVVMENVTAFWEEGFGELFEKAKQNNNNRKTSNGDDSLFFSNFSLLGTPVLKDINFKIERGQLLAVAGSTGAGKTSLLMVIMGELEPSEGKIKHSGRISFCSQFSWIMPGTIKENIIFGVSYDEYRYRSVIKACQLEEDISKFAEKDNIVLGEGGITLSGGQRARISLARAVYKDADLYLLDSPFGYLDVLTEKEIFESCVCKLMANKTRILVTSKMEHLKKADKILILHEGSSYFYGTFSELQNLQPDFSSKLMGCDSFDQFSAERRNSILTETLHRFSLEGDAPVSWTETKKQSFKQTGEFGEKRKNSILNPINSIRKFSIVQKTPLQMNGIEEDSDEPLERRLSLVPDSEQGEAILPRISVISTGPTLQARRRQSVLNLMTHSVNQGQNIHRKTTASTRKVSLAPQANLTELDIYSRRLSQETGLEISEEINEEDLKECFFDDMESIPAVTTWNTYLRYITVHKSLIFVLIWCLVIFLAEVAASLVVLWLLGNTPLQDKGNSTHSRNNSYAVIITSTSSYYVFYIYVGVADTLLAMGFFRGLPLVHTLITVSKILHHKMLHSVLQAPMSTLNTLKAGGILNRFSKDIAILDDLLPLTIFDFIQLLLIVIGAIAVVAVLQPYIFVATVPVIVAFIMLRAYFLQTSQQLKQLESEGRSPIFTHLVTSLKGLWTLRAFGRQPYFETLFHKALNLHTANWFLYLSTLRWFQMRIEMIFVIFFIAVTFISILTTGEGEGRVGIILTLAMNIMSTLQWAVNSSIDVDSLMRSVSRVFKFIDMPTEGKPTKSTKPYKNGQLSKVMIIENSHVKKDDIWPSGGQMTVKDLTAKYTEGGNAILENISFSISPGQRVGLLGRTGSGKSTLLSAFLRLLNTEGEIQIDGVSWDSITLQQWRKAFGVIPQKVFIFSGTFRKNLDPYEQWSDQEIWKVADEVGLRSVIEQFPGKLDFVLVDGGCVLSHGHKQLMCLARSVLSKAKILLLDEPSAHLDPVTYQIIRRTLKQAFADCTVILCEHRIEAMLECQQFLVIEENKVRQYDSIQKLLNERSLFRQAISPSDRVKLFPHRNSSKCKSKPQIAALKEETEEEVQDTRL

CFTR [2] = target: T1, CFTR; type: cell-based; details: for Effect of CFTR inhibitors on forskolin-stimulated swelling: Example 2, 3 hours pre-incubation, 50 μM
Target sequence in this assay (P13569 whole entry, looked up): as the sequence (P13569 whole entry) above

[3] = cited from earlier work
CFTR [4] = details: CFTR corrector, cited from earlier work; for EC50: read-out: Potency: EC50
CFTR [5] = details: cited from earlier work
CFTR [6] = assay: Organoid swelling on compound addition (organoid origin not stated; FIG. 7, FIG. 32); type: cell-based
CFTR [7] = target: CFTR (Mus musculus, UniProt P26361); assay: Forskolin-induced swelling (FIS) of murine wild-type small intestinal organoids; details: live cell microscopy
CFTR (Mus musculus, UniProt P26361), sequence (P26361 whole entry): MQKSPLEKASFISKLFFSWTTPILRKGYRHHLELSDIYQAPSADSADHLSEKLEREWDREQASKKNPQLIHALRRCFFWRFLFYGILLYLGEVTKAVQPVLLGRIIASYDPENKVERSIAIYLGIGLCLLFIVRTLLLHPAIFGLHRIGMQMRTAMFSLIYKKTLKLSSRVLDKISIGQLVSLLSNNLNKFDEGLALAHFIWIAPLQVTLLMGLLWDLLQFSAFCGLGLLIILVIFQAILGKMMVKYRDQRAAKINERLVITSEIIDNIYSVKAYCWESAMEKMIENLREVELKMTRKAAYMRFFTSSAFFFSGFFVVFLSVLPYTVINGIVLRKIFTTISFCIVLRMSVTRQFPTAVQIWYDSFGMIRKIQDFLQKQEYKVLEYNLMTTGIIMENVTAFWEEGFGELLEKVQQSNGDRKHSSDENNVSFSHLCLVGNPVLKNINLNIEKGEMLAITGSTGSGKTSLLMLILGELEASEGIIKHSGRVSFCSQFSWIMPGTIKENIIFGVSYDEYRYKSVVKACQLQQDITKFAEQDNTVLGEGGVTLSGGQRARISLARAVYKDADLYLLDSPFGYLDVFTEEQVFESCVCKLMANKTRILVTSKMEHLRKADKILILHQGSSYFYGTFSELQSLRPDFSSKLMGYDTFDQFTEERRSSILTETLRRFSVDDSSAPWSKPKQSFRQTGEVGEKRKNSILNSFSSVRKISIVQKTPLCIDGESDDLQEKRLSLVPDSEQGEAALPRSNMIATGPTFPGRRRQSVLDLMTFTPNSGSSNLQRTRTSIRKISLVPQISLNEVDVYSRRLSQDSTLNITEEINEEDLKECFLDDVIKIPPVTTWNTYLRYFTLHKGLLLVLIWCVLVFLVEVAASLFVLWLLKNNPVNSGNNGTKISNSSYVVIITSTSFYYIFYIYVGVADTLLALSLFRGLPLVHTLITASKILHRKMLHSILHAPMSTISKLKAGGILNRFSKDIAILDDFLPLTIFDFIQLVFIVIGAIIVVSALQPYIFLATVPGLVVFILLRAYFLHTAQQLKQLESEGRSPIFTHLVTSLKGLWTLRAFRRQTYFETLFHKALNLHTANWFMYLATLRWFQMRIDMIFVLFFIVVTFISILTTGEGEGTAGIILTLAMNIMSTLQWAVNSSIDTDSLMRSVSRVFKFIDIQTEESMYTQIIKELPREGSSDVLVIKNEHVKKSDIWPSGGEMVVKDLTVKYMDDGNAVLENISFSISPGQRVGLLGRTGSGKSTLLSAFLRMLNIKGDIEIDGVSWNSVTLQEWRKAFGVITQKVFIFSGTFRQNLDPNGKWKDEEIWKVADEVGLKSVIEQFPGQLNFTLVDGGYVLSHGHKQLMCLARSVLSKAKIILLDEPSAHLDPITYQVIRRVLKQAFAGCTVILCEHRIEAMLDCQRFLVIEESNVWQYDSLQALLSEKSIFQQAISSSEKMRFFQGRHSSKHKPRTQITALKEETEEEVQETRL

[8] = human healthy control organoids

Question: Which results are given for O=C(O)c1ccc(/C=C2/SC(=S)N(c3cccc(C(F)(F)F)c3)C2=O)cc1 [B1, 4-[4-Oxo-2-thioxo-3-(3-trifluoromethyl-phenyl)-thiazolidin-5-ylidenemethyl]-benzoic acid]?
Answer: Ki (CFTR [1]): 0.3 µM; Onset of inhibition (CFTR [1]; some cell types (eg. T84 cells), requiring prolonged incubation): Slow onset of inhibition; Effect of CFTR inhibitors on forskolin-stimulated swelling (CFTR [2]; [8]): reduced

Question: With O=C(CNc1ccc2ccccc2c1)N/N=C/c1cc(Br)c(O)c(Br)c1O [B2, (Naphthalen-2-ylamino)-acetic acid (3,5-dibromo-2,4,- dihydroxy-benzylidene)-hydrazide] as the compound, how does the “Effect of CFTR inhibitors on forskolin-stimulated swelling” value (CFTR [2]; [8]) read?
Answer: The value was “reduced”.

Question: With Cc1ccc(S(=O)(=O)NC(=O)Nc2ccc([N+](=O)[O-])cc2)cc1 [B3, Diarylsulfonyl- urea] as the compound, how does the Ki (CFTR [1]) read?
Answer: The Ki was over 100 µM.

Question: For Cc1ccc(C2Nc3ccccc3-n3c(-c4ccccc4)c4c(=O)n(C)c(=O)n(C)c4c32)o1 (centres unmarked) [B6, 7,9-dimethyl-11-phenyl-6-(5-methylfuran-2-yl)-5,6-dihydro-pyrimido-[4′,5′-3,4]pyrrolo[1,2-a]quinoxaline-8,10-(7H,9H)-dione], which Ki (CFTR [1]) is on record?
Answer: Its Ki is 0.09 µM.

Question: Which Ki (CFTR [1]) does the source give for O=C1/C(=C/c2ccc(-c3nn[nH]n3)cc2)SC(=S)N1c1cccc(C(F)(F)F)c1 [B7, 5-[[4-(2h-tetrazol-5-yl)phenyl]methylene]-2-thioxo-3-[3-(trifluoromethyl)phenyl]-4-thiazolidinone] here?
Answer: The Ki was about 1 µM.

Question: What about the “Water solubility relative to Inh.-172” value [3] of the same compound?
Answer: Its value is “more water soluble than Inh.-172”.

Question: For O=C(O)c1ccc(/C=C2\SC(=O)N(c3cccc(C(F)(F)F)c3)C2=O)cc1 [B8, 4-[[3-[3-(trifluoromethyl)phenyl]-2,4-dioxo-5-thiazolidinyli-dene]methyl]benzoic acid], which Ki (CFTR [1]) is on record?
Answer: Its Ki is about 1 µM.

Question: What about the “Water solubility relative to Inh.-172” value [3] of the same compound?
Answer: Its value is “more water soluble than Inh.-172”.

Question: With COc1ccc2nc(Nc3nc(O)cc(CSc4nc5ccccc5[nH]4)n3)nc(C)c2c1 [C1, 6-(1H-Benzoimidazol-2-ylsulfanyl-methyl)-2-(6-methoxy-4-methyl-quinazolin-2-ylamino)-pyrimidin-4-ol] as the compound, how does the “Potency: Ks” value (CFTR [4]) read?
Answer: Its value is “Reference #** 11 Potency: Ks = 3 microM Solvent: DMSO Hints For Use: M.W.: 445.5”.

Question: For COc1ccc(S(=O)(=O)N2CCN(C(C)c3nc(OC4CCCCC4)c4ccccc4n3)CC2)cc1 (centres unmarked) [C3, Cyclohexyloxy-2-{1-[4-(4-methoxy-benzensulfonyl)-piperazin-1-yl]-ethyl}-quinazoline], which EC50 (CFTR [4]) is on record?
Answer: The EC50 was 2 µM.

Question: For COc1ccc(Cl)cc1Nc1nc(-c2sc(NC(=O)c3ccccc3)nc2C)cs1 [C4, N-[2-(5-Chloro-2-methoxy-phenylamino)-4′-methyl-[4,5′]bithiazolyl-2′-yl]-benzamide], which EC50 (CFTR [4]) is on record?
Answer: Its EC50 is 2 µM.

Question: With Cc1cc(C)c2c(C)cc(Nc3ccccc3)nc2c1 [C5, 4,5,7-trimethyl N-phenylquinolin-2-amine] as the compound, how does the EC50 (CFTR [4]) read?
Answer: Its EC50 is 13 µM.

Question: For Cc1cc(Nc2ccc(Br)cc2)nc2ccccc12 [C6, N-(4-bromophenyl)-4-methylquinolin-2-amine], which EC50 (CFTR [4]) is on record?
Answer: The EC50 was 8 µM.

Question: For O=S(=O)(c1ccc(Cl)cc1)N1CCN(c2ccnc3cc(Cl)ccc23)CC1 [C9, 7-chloro-4-(4-(4-chlorophenylsul-fonyl)piperazin-1-yl)quinoline], which EC50 (CFTR [4]) is on record?
Answer: The EC50 was under 1 µM.

Question: For O=S(=O)(c1ccccc1)N1CCN(c2ccnc3cc(Cl)ccc23)CC1 [C10, 7-chloro-4-(4-(phenylsulfonyl)piperazin-1-yl)quinoline], which EC50 (CFTR [4]) is on record?
Answer: Its EC50 is over 100 µM.

Question: Which EC50 (CFTR [4]) does the source give for O=C(N/N=C\c1ccc(O)c(O)c1)c1cc2ccccc2cc1O [C11, (Z)-N′-(3,4-dihydroxyben-zylidene)-3-hydroxy-2-naphtho-hydrazide] here?
Answer: The EC50 was 10 to 20 µM.

Question: Which EC50 (CFTR [4]) does the source give for Cc1ccc(-c2csc(Nc3ccc(F)cc3)n2)cc1 [C12, N-(4-fluorophenyl)-4-p-tolylthiazol-2-amine] here?
Answer: Its EC50 is 5 µM.

Question: With CC(=O)c1cccc(Nc2nc(-c3sc(NC(=O)c4ccccc4)nc3C)cs2)c1 [C13, N-(2-(3-acetylphenyl-amino)-4′-methyl-4,5′-bithiazol-2′-yl)benzamide] as the compound, how does the EC50 (CFTR [4]) read?
Answer: The EC50 was 2 µM.

Question: For COc1ccccc1Nc1ncc(-c2sc(NC(=O)c3ccccc3)nc2C)s1 [C14, N-(2′-(2-methoxyphenylamino)-4-methyl-5,5′-bithiazol-2-yl)benzamide], which EC50 (CFTR [4]) is on record?
Answer: Its EC50 is 7 µM.

Question: For C=Cc1ccc(-c2csc(Nc3ccccc3)n2)cc1 [C15, N-phenyl-4-(4-vinylphenyl) thiazol-2-amine], which EC50 (CFTR [4]) is on record?
Answer: The EC50 was 16 µM.

Question: For COc1ccc2nc(Nc3nc(=O)c(C)c(C)[nH]3)nc(C)c2c1 [C16, 2-(6-methoxy-4-methylquina-zolin-2-ylamino)-5,6-dimethylpyrimi-din-4(1H)-one], which EC50 (CFTR [4]) is on record?
Answer: Its EC50 is 15 µM.

Question: For COc1ccc(Cl)cc1Nc1nc(-c2sc(NC(=O)C(C)(C)C)nc2C)cs1 [C17, N-(2-(5-chloro-2-methoxyphenylamino)-4′-methyl-4,5′-bithiazol-2′-yl)pivalamide], which EC50 (CFTR [4]) is on record?
Answer: The EC50 was 1 to 2 µM.

Question: Which “Potency: Ks” value (CFTR [4]) does the source give for O=C(Nc1ncc(C(c2ccccc2Cl)N2CCC(O)C2)s1)C1(c2ccc3c(c2)OCO3)CC1 (centres unmarked) [C18, 1-(benzo[d][1,3]di-oxol-5-yl)-N-(5-((2-chlorophenyl)(3-hydroxy-pyrrolidin-1-yl)methyl)thiazol-2-yl)cyclopropane carboxamide] here?
Answer: The value was “Reference # 24 Name: CF-106951 Potency Ks ~0.6 microM Solvent: DMSO Hints for use: Use at 3 to 6 microM for maximum effect. M.W. 497.99”.

Question: With Cc1ccc(O)c(-c2cc(-c3ccccc3)[nH]n2)c1 [P1, 4-Methyl-2-(5-phenyl-1H-pyrazol-3-yl)-phenol] as the compound, how does the “Potency: Ks” value (CFTR [5]; CFTR potentiator) read?
Answer: Its value is “Reference #**12 & 15 Name: VRT-532 Potency: Ks 3 to 5 microM Solvent: DMSO Hints For Use: M.W.: 250”.

Question: With CC(C)c1ccc(NC(=O)C(c2ccccc2)N(C)C(=O)Cc2c[nH]c3ccccc23)cc1 (centres unmarked) [P2, 2-[(2-1H-lndol-3-yl-acetyl)-methyl-amino]-N-(4-isopropyl-phenyl)-2-phenyl-acetamide] as the compound, how does the “Potency: Ks” value (CFTR [5]; CFTR potentiator) read?
Answer: The value was “Reference #** 4 Name: PG-01 Potency:Ks = 300 nM Solvent: DMSO Hints For Use: M.W.: 439.5”.

Question: Which “Potency: Ks” value (CFTR [5]; CFTR potentiator) does the source give for CCN(c1ccccc1)S(=O)(=O)c1ccc2[nH]cc(C(=O)NCc3ccccc3OC)c(=O)c2c1 [P3, 6-(Ethyl-phenyl-sulfonyl)-4-oxo-1,4-dihydro-quinoline-3-carboxylic acid 2-methoxy-benzylamide] here?
Answer: The value was “Reference #** 4 Name: SF-03 Potency: Ks = 30 nM Solvent: DMSO Hints For Use: M.W.: 491.6”.

Question: With O=c1[nH]c2cc(C(F)(F)F)ccc2n1-c1cccc(Cl)c1 [P4, 1-(3-chlorophenyl)-5-trifluoromethyl-3-hydrobenzi-midazol-2-one] as the compound, how does the “Potency: Ks” value (CFTR [5]; CFTR potentiator) read?
Answer: Its value is “Reference #** 5 Name: UCCF-853 Potency: Ks = 3 microM Solvent: DMSO Hints For Use: M.W.: 312.7”.

Question: With NC(=O)c1c(NC(=O)c2ccccc2Cl)sc2c1CCCC2 [P5, 2-(2-Chloro-benzoylamino)-4,5,6,7-tetrahydro-benzo[b] thiophene-3-carboxylic acid amide] as the compound, how does the “Potency: Ks” value (CFTR [5]; CFTR potentiator) read?
Answer: Its value is “Reference #** 6 Name: dF508act-02 Potency: Ks = 70 nM Solvent: DMSO Hints For Use: M.W.: 334.8”.

Question: Which “Organoid swelling on compound addition” value (CFTR [6]) does the source give for O=C1c2c(O)cc(O)cc2OCC1c1ccc(O)cc1 (centres unmarked) [P6, 5,7,Dihydroxy-3-(4-hydroxy-phenyl)-chroman-4-one] here?
Answer: The value was “rapid organoid swelling”.

Question: And the “Potency: Ks” value (CFTR [5]; CFTR potentiator)?
Answer: The value was “Reference #** 8 Name: Genistein (discontinued— available from Sigma #G6649) Potency: Ks = 10 to 30 microM Solvent: DMSO”.

Question: With O=C1Cc2cc(C(F)(F)F)ccc2N1c1cc(Cl)ccc1O [P7, 1-(5-Chloro-2-hydroxy-phenyl)-5-trifluoromethyl-1,3-dihydro-indol-2-one] as the compound, how does the EC50 (CFTR [5]; CFTR potentiator, read-out: Potency: EC50) read?
Answer: The EC50 was 3 µM.

Question: And the “Activity in excised patches” value (CFTR [5]; excised patches)?
Answer: Its value is “Does not work in excised patches”.

Question: For O=c1cc(-c2ccncc2)oc2c1ccc1ccccc12 [P8, 4-(4-Oxo-4H-benzo[h]chromen-2-yl)-pyridinium; bisulfate], which “Potency: Ks” value (CFTR [5]; CFTR potentiator) is on record?
Answer: Its value is “Reference #** 9 and 10 Potency: Ks = 2 microM Solvent: DMSO Hints For Use: M.W.: 371.4”.

Question: Which “Potency: Ks” value (CFTR [5]; CFTR potentiator) does the source give for C#CCCc1nn(-c2ccccc2)c(OC)c1C=O [P9, 3-But-3-ynyl-5-methoxy-1-phenyl-1H-pyrazole-4-carbaldehyde] here?
Answer: Its value is “Reference #** 10 Potency: Ks = 10 microM Solvent: DMSO Hints For Use: M.W.: 254.3”.

Question: With ClCc1cc(-c2ccccc2OCc2ccccc2)no1 [P10, 3-(2-Benzyloxy-phenyl)-5-chloromethyl-isoxazole] as the compound, how does the “Potency: Ks” value (CFTR [5]; CFTR potentiator) read?
Answer: Its value is “Reference #** 10 Potency: Ks >50 microM Solvent: DMSO Hints For Use: M.W.: 299.8”.

Question: Which “Organoid swelling on compound addition” value (CFTR [6]) does the source give for NCCc1ccc(O)c(O)c1 [dopamine] here?
Answer: The value was “forskolin-like swelling”.

Question: Which “Organoid swelling on compound addition” value (CFTR [6]) does the source give for CNC[C@H](O)c1ccc(O)c(O)c1 [epinephrine] here?
Answer: The value was “forskolin-like swelling”.

Question: Which results are given for C=C[C@@]1(C)CC(=O)[C@]2(O)[C@@]3(C)[C@@H](O)CCC(C)(C)[C@@H]3[C@H](O)[C@H](OC(C)=O)[C@@]2(C)O1 [forskolin, (3R,4aR,5S,6S,6aS,10S,10aR,10bS)-6,10,10b-trihydroxy-3,4a,7,7,10a-pentamethyl-1-oxo-3-vinyldodecahydro-1H-benzo[f]chromen-5-yl acetate]?
Answer: Organoid swelling on forskolin addition (CFTR [7]): rapid expansion of the lumen and total organoid surface area; also recorded: dose-dependent relation between forskolin and increase of surface area over time; Organoid swelling induced by stimulus (CFTR [2]; [8]): rapid forskolin-stimulated swelling; Increase in organoid size (CFTR [2]; human organoids, in the space of 120 minutes (FIG. 8)): more than double in size

Question: For CC(NCCc1ccc(O)cc1)C(O)c1ccc(O)cc1 (centres unmarked) [ritodrine], which “Organoid swelling on compound addition” value (CFTR [6]) is on record?
Answer: Its value is “forskolin-like swelling”.

Question: For CC(C)(C)NCC(O)c1ccc(O)c(CO)c1 (centres unmarked) [salbutamol], which “Organoid swelling on compound addition” value (CFTR [6]) is on record?
Answer: The value was “forskolin-like swelling”.

Question: With cholera toxin as the compound, how does the “Increase in organoid size” value (CFTR [2]) read?
Answer: The value was “more than double in size”.

Question: And the “Organoid swelling induced by stimulus” value (CFTR [2])?
Answer: The value was “induce swelling”.

Question: What about the “Time course of swelling response” value (CFTR [2]) of the same compound?
Answer: Its value is “delayed compared to forskolin”.
